Laboratory results from patent US6479555B1, “Method for inducing hepatic fibrosis by repeated administration of allylalcohol” (priority 2000, dated 2002).

What was measured:
periportal liver = conditions: in vivo; cited from earlier work
[1] = tested on: Spraque Dawley male white mice; assay: Extent of hepatic fibrosis by histological examination (Batts and Ludwig classification) after repeated allylalcohol injection; format: in vivo, white mouse
Protocol: (§1) Of the forty total Spraque Dawley male white mice(weight 150-200 g), 10 mice were used as a control group and 30 mice were treated with allylalcohol.
(§2) 30 mice with treated allylalcohol were devided into three groups, each containing 10 mice. The 1st group was administered an injection with allylalcohol dissolved in saline solution with 0.3 mmole/kg into a peritoneal cavity twice a week. The 2nd and 3rd groups received 0.62 mmole/kg and 0.93 mmole/kg of allylalcohol, respectively, via the same method.
(§3) The animals were maintained 23° C. and 40% of relative humidity. The intensity of illumination was maintained for 12 hours from 6 A.M. to 6 P.M. They were sacrificed after 8 weeks.
(§4) The present inventors used total of 30 Spraque-Dawley male white mice, injected 0.62 mmole/kg allylalcohol into the peritoneal cavity twice a week, and sacrificed ten mice each time after 4 weeks, 8 weeks, and 16 weeks.
(§5) The liver tissues of 30 mice obtained from the Example <1-2> were fixed in 10% formalin solution, stained with Masson's trichrome, and observed for the determination of fibrosis under light microscope.

[2] = tested on: Spraque-Dawley male white mice; assay: Quantification of hepatic fibrosis by the numerical scoring system; format: in vivo, white mouse
Description: In order to include width of fibrosis septa and fibrosis development in sinusoid as well as that between the portals, these inventors had quantified the extent of the fibrosis using the numerical scoring system reported by Castilla-Cortaza(1997) and Oberti (1997).
To systemically analyze the result of the numerical scoring system, these inventors also used the Image precessing and analysis system program (Leica Q500 MC, Leica Cambridge Ltd, Cambridge, U. K., 1994).
The length of septa was classified as score “4” when the septa showing fibrosis from one portal to the other is one whole length, score “3” for up to ⅔, score “2” for up to ⅓, and score “1” for less than ⅓. For the width of septa, the score from 2-6 was given for the mean of widths of three different periportal septa, centriperiveinal septa and perinodal septa at four different sites.
The number for the width of septa was determined by measuring the fibrotic region of blood vessel in one node that score “4” when the whole node was filled with the fibrotic strand and a large number of the septa made the micronode, score “3” when the fibrosis region occupied up to ⅔ of the whole node area, score “2” up to ⅓, and score “1” when the fibrosis strand was little in the node.
as §4, §5

[3] = tested on: Spraque Dawley male white mice; assay: Death during repeated allylalcohol treatment; format: in vivo, white mouse
Protocol: as §1, §2, §3, §4

[4] = tested on: Spraque-Dawley male white mice; assay: Serum alanine aminotransferase (ALT) activity; format: in vivo, white mouse; conditions: 0.62 mmole/kg i.p. twice a week
Protocol: as §4
To collect a specimen, the white mouse was sacrificed 72 hours after final injection. The mouse was put under general anesthesia using diethylether, and its abdomen was cut open at suspine position. 7-10 ml of whole blood was withdrawn with a syringe treated with heparine, and the liver tissue was extracted.
The collected blood sample was left at room temperature for 30 min, centrifuged at 3,000 g for 10 min. The serum was devided into several fractions and stored at −70° C. until used.
Serum alanine aminotransferase(hereinafter, as referred as “ALT”) activity was measured by using the automatic analyzer (Hitach, 747/200 type), which is based on the spectrophotometric quantification of […] loss using lactic dehydrogenase as a […] (Horder and Rej, 1983).

[5] = tested on: Spraque-Dawley male white mice; assay: Collagen content of liver tissues (dye-binding procedure of Jimenez); format: in vivo, white mouse; conditions: liver tissue
Protocol: The collagen content of liver tissues was measured by dye-binding procedure of Jimenez. The liver tissue fixed in 10% formalin and embedded in paraffin was sliced by 15 um of thickness and put on a slide glass.
After the paraffin was removed by xylene and alcohol, the sample was stained with the saturated picric acid solution containing 0.01% fast green FCF (Fluka AG, NO 42053, Switzerland), left at room temperature for 15 min, and washed with a phosphate buffer until most color came off. The sample was restained with the saturated picric acid solution containing 0.04% fast green and 0.1% Sirius red F3B (Gurr BDH Chemical Ltd., NO 34149, Poole, England), left at room temperature for 30 min in the darkroom, and washed as before.
The stained tissue sample was transferred into the tube containing 1 ml solution with equal volume of 0.1% sodium hydroxide and methanol, and the tube was slowly shaken until the color dissolved completely. The absorbance of the colored solution was measured with a spectrophotometer. The wavelength for maximum absorbance was 630 nm for fast green, and 540 nm for Sirius red. Since fast green also absorbed a little (7.78%) at 540 nm, these inventors made calculations correcting for the factor.
The amount of collagen per unit protein was obtained with the formula 1 using the color equivalence of 3 OD/mg protein and 37 OD/mg collagen for fast green and Sirius red, respectively. [formula]

TGF β1 mRNA = assay: Semi-quantitative measurement of TGF β1 mRNA expression in the liver tissue by RT-PCR; format: in vivo, white mouse
Protocol: Total RNA of the mouse liver tissue stored at −70° C. was extracted by one-step method using acid guanidinium thiocyanate-phenol-chloroform (AGPC, 1987) of Chomczynski and Sacchi. […] of the frozen liver tissue was homogenized in 1 ml of denaturing solution (4 M guanidinium thiocyanate, 25 mM sodium citrate, pH 7, 0.5% sarcosyl, 0.1 M 2-mercapto ethanol).
After the addition of 1 ml of phenol and 100 ul of chloroform were added to it, the homogenate was shaken thoroughly for 15 sec, left at 4° C. for 5 min, and centrifuged at 12,000 g and 4° C. for 15 min. The supernatant (aqueous phase) was withdrawn, mixed with equal volume of isopropanol, left at 4° C. for 15 min, and centrifuged as before.
RNA pellet was collected, washed with 75% ethanol twice, and centrifuged at 7,500 g and 4° C. for 8 min to remove ethanol. RNA pellet was dried under vacuum using the Speed Vac concentrator at −70° C. for 15 min. The dried RNA was dissolved in 20 ul of deionized distilled water(DDW) treated with 0.1% di-ethyl-pyro-carbonate (DEPC), and stored at −70° C. RNA concentration was determined by spectrophotometric measurement of absorbance at 260 nm. When the absorption ratio of A260/A280 used as an index of purity, exceeds 1.8, RNA samples were considered pure.
For the synthesis of cDNA of TGF β1 mRNA, 2 ul of total RNA extracted from the mouse liver tissue was mixed with 10 unit of Molony murine leukemia virus reverse transcriptase(M-MuLV RT), 100 ng of oligo-dT15, 1 ul of dNTP (dGTP, dATP, dTTP, dCTP), RNase inhibitor 20 unit, 0.5 ul of 100 mM dithitritol (DTT) and 4 ul of 5×buffer solution, and total volume of the reaction mixture was adjusted to 20 ul by adding 0.1% DEPC-treated DDW.
The reaction mixture was heated at 37° C. for 90 min and 95° C. for 5 min, and rapidly cooled down on ice. 80 ul of DDW was added to this cDNA mixture which was then used as a PCR template.
For amplification of TGF β1 cDNA template, a sense-primer represented by SEQ ID NO.1 and an antisense-primer represented by SEQ ID NO.2 was synthesized. The position and the PCR product size of the primer set were described in Table 7. The concentration of the synthesized primer was adjusted to 10 pmole/ul by dissolving in TE buffer solution and stored at −20° C. until used.
cDNA solution was diluted by two times until the concentration was to be 2^−1, 2^−2, 2^−3, , , , , and 2^−10, and used as PCR templates. 50 ul total of PCR reaction solution contained 4 ul of cDNA template solution, 1 unit of Taq DNA polymerase, each of 1 ul the antisense and the sense primer, 1 ul of dNTP, 5 ul of 10×buffer solution (containing 2.5 mM MgCl2) and 37.7 ul of DDW.
To prevent vaporization of the sample at high temperature, 20 ul of mineral oil was added to the reaction mixture. PCR reaction was performed with PCR automated thermal cycler (Perkin Elmer) by using a hot start method. The hot start method included a denaturation step at 94° C. for 4 min, and the primer annealing and extension step at 65° C. for 15 min (at this step, Taq DNA polymerase was added after 10 min).
The reaction system then underwent 35 cycles of heating 94° C. for 45 sec, 60° C. for 45 sec, and 72° C. for 2 min, and the extension step was completed with 5 min heating at 72° C. In the RNA synthesis, negative control was distilled water, and positive control was 1 ul of TGF β1 cDNA fragment solution provided from a Clontech Laboratory.
The amplified PCR product mixed with 6×DNA loading buffer (0.25% bromophenol blue, 0.25% xylene cylanol, 30% glycol) was analyzed by electrophoresis using 2% agarose gel containing 1 ul ethidium bromide with 1×TBE buffer solution(89 mM tris-borate, 2 mM EDTA). After the electrophoresis at 100 volt for 60 min, UV transilluminator was used to establish the visible band(FIG. 3).

mouse = mouse treated with carbon tetrachloride, cited from earlier work
[6] = 0.62 mmole/kg i.p. twice a week, 16 weeks
[7] = 2nd group, 0.62 mmole/kg i.p. twice a week, 8 weeks
[8] = liver tissues of the 30 mice of Example 1-2, Masson's trichrome
[9] = 0.62 mmole/kg i.p. twice a week, 4 weeks
[10] = 0.62 mmole/kg i.p. twice a week, 8 weeks

C=CC=O [Acrolein, acrolein]
liver toxicity (periportal liver): intense liver toxicity

C=CCO [allylalcohol, Allylalcohol]
number of mice with cirrhosis [1, 6]: 5 | number of mice with moderate hepatic fibrosis [1, 6]: 2 | number of mice with severe hepatic fibrosis [1, 6]: 3 | number of mice with mild hepatic fibrosis [1, 7]: 1 | number of mice with severe hepatic fibrosis [1, 7]: 5 | number of mice with severe hepatic fibrosis ([1]; 3rd group, 0.93 mmole/kg i.p. twice a week, 8 weeks): 2 | number of samples classified as cirrhosis [1, 8]: 5 | number of samples classified as mild [1, 8]: 7 | number of samples classified as moderate [1, 8]: 5 | number of samples classified as normal [1, 8]: 4 | number of samples classified as severe [1, 8]: 8 | number of mice with numerical score 1 [2, 9]: 10 | number of mice with numerical score 8 [2, 10]: 4 | number of mice with numerical score 9 [2, 10]: 1 | number of mice with numerical score 10 [2, 10]: 1 | number of mice with numerical score 11 [2, 10]: 2 | number of mice with numerical score 12 [2, 10]: 1 | number of mice with numerical score 7 [2, 6]: 1 | number of mice with numerical score 8 [2, 6]: 1 | number of mice with numerical score 10 [2, 6]: 1 | number of mice with numerical score 11 [2, 6]: 1 | number of mice with numerical score 12 [2, 6]: 3 | number of mice with numerical score 13 [2, 6]: 2 | number of mice with numerical score 14 [2, 6]: 1 | extent of hepatic fibrosis by the numerical scoring system, all the animals ([2]; 4-week group, 0.62 mmole/kg i.p. twice a week): less than 2 | extent of hepatic fibrosis by the numerical scoring system, all the animals ([2]; 8-week group, 0.62 mmole/kg i.p. twice a week): higher than 7 | extent of hepatic fibrosis by the numerical scoring system, all the animals ([2]; 16-week group, 0.62 mmole/kg i.p. twice a week): higher than 7 | numerical score ([2]; cirrhosis group of the 30 treated mice): 12.4±1.5 | numerical score ([2]; mild group of the 30 treated mice): 2.6±1 | numerical score ([2]; moderate group of the 30 treated mice): 9.0±1.7 | numerical score ([2]; printed 'control group' (first histological class) of the 30 treated mice): 1.0±0 | numerical score ([2]; severe group of the 30 treated mice): 9.8±1.5 | number of tissue samples with score of 1-6 ([2]; treated mice of Example 1-2): 10 | number of tissue samples with score of 7-10 ([2]; treated mice of Example 1-2): 9 | number of tissue samples with score of 11-14 ([2]; treated mice of Example 1-2): 10 | death (number of mice) [3, 9]: 0 | death (number of mice) ([3]; 0.62 mmole/kg i.p. twice a week, 8 weeks (Example 1-2)): 1 | death (number of mice) [3, 6]: 0 | death (number of mice) ([3]; 1st group, 0.3 mmole/kg i.p. twice a week, 8 weeks): 0 | ALT activity ([4]; 4 weeks): 69.6±39.8 U/L | ALT activity ([4]; 8 weeks): 63.8±9.6 U/L | ALT activity ([4]; 16 weeks): 75.5±15.9 U/L | Collagen content ([5]; treated for 4 weeks): 110.2±11.9 ug collagen/mg protein | Collagen content ([5]; treated for 8 weeks): 132.5±29.3 ug collagen/mg protein | Collagen content ([5]; treated for 16 weeks): 157.2±94.7 ug collagen/mg protein | Collagen content ([5]; treated mice with score 1-6): 110.2±11.9 ug collagen/mg protein | Collagen content ([5]; treated mice with score 7-10): 131.4±30.0 ug collagen/mg protein | Collagen content ([5]; treated mice with score 11-14): 158.2±94.2 ug collagen/mg protein | TGF β1 mRNA (TGF β1 mRNA; treated for 4 weeks, Table 9 line printed 'Score 1-6'): 4.7±2.4 unit/total RNA 2 ug | TGF β1 mRNA (TGF β1 mRNA; treated for 8 weeks, Table 9 line printed 'Score 7-10'): 5.8±1.0 unit/total RNA 2 ug | TGF β1 mRNA (TGF β1 mRNA; treated for 16 weeks, Table 9 line printed 'Score 11-14'): 5.7±2.3 unit/total RNA 2 ug | TGF β1 mRNA (TGF β1 mRNA; treated mice with score 1-6): 4.7±2.4 unit/total RNA 2 ug | TGF β1 mRNA (TGF β1 mRNA; treated mice with score 7-10): 5.8±1.5 unit/total RNA 2 ug | TGF β1 mRNA (TGF β1 mRNA; treated mice with score 11-14): 5.7±2.0 unit/total RNA 2 ug

ClC(Cl)(Cl)Cl [carbon tetrachloride]
induction period (mouse; pretreatment with phenobarbitol): 8-10 weeks | time to irreversible accumulation of collagen (mouse): ≤ 20 weeks
